In patent EP4291552B1, “MODULATORS OF COMPLEX I” (Boehringer Ingelheim International GmbH, priority 2021, dated 2022):

test system: mice neuroblastoma cells (HT-22); experiment: Determination of Cellular Protection (HT22); settings: Mus musculus, HT-22, 16 h, read-out: HT22 IC50

Row | Compound | IC50 [nM]
1 | O=C1/C(=C2/CC3(CN2)COC3)c2cc(NC3CCOC3)ccc2N1C1CCOCC1 (centres unmarked) [Compound 70] | 1150
2 | CC(C)Nc1ccc2c(c1)/C(=C1\COCCN1)C(=O)N2C [Compound 63] | 134
3 | O=C1/C(=C2/COCCN2)c2cc(NCC3CC3)ccc2N1C1CCOCC1 [Compound 103] | 105
4 | O=C1/C(=C2/COCCN2)c2cc(NC3CCC3)ccc2N1C1CCOCC1 [Compound 132] | 21
5 | CCC(CC)Nc1ccc2c(c1)/C(=C1\COCCN1)C(=O)N2C1COC1 [Compound 136] | 18
6 | CN(C)c1ccc2c(c1)/C(=C1\CCCN1)C(=O)N2C [Compound 1] | 282
7 | O=C1/C(=C2/COCCN2)c2cc(NC3CCC(F)(F)CC3)ccc2N1C1CCOCC1 [Compound 78] | 37
8 | O=C1/C(=C2/COCCN2)c2cc(NC3CCC3)ccc2N1C1COC1 [Compound 51] | 33
9 | CC(Nc1ccc2c(c1)/C(=C1\COCCN1)C(=O)N2C(C)C)c1cccnc1 (centres unmarked) [Compound 15] | 115
10 | CC(C)Nc1ccc2c(c1)/C(=C1\COCCN1)C(=O)N2C(C)C [Compound 44] | 30
11 | CC(C)Nc1ccc2c(c1)/C(=C1\COCCN1)C(=O)N2[C@H]1CCN(C2COC2)C1 [Compound 69] | 141
12 | CC(=O)N1CC[C@H](N2C(=O)/C(=C3/COCCN3)c3cc(NC(C)C)ccc32)C1 [Compound 170] | 159
13 | O=C1/C(=C2/CCOCCN2)c2cc(NC3CCC3)ccc2N1C1CCOCC1 [Compound 120] | 51
14 | CC(C)N1C(=O)/C(=C2/CCCCN2)c2cc(N(C3CCC3)C3CCC3)ccc21 [Compound 113] | 18
15 | CC(Nc1ccc2c(c1)/C(=C1\COCCN1)C(=O)N2C1CCOCC1)c1cncnc1 (centres unmarked) [Compound 147] | 422
16 | CC(C)CNc1ccc2c(c1)/C(=C1\COCCN1)C(=O)N2C(C)C [Compound 173] | 32
17 | O=C1/C(=C2/COCCN2)c2cc(NC3CCOCC3F)ccc2N1C1CCOCC1 (centres unmarked) [Compound 80] | 345
18 | CC(C)Nc1ccc2c(c1)/C(=C1\CN(C(C)C)CCN1)C(=O)N2C1CCN(C(C)C)CC1 [Compound 8] | 41
19 | CC(=O)N1CCN/C(=C2\C(=O)N(C3CCOCC3)c3ccc(NC(C)C)cc32)C1 [Compound 111] | 249
20 | CC(C)N1C(=O)/C(=C2/CCOCCN2)c2cc(NC3CCC3)ccc21 [Compound 22] | 11
21 | CC(C)N1C(=O)/C(=C2/COCCN2)c2cc(NCc3cc[nH]n3)ccc21 [Compound 74] | 144
22 | CC(C)N1C(=O)/C(=C2/COCCN2)c2cc(NCC3CCOC3)ccc21 (centres unmarked) [Compound 39] | 102

Row | Compound | IC50 [nM]
23 | CC(C)N1C(=O)/C(=C2/COCCN2)c2cc(NC(C)C(C)(C)C)ccc21 (centres unmarked) [Compound 55] | 38
24 | CCOC(=O)N1CCC(N2C(=O)/C(=C3/COCCN3)c3cc(NC(C)C)ccc32)CC1 [Compound 10] | 31
25 | CC(=O)N1CCC2(CC1)CN/C(=C1\C(=O)N(C(C)C)c3ccc(N4CCCC4)cc31)CO2 [Compound 53] | 55
26 | CC(Nc1ccc2c(c1)/C(=C1\COCCN1)C(=O)N2C(C)C)C1CCCC1 (centres unmarked) [Compound 56] | 2
27 | CC(C)N1C(=O)C(=C2CCOCC2)c2cc(NC3CCC3)ccc21 [Compound 25] | 96
28 | CC1CCC(C)N1c1ccc2c(c1)/C(=C1\COCCN1)C(=O)N2C (centres unmarked) [Compound 84] | 141
29 | CC(C)N1CCC(Nc2ccc3c(c2)/C(=C2\COCCN2)C(=O)N3C(C)C)CC1 [Compound 96] | 41
30 | CC(C)N1C(=O)/C(=C2/COCCN2)c2cc(N3CCOCC3)ccc21 [Compound 166] | 649
31 | CC(C)Nc1ccc2c(c1)/C(=C1\COCCCN1)C(=O)N2C1CCOCC1 [Compound 167] | 134
32 | O=C1/C(=C2/COCCCN2)c2cc(NC3CCOC3)ccc2N1C1CCOCC1 (centres unmarked) [Compound 141] | 646
33 | CC(C)Nc1ccc2c(c1)/C(=C1\COCCN1)C(=O)N2C(C)(C)C [Compound 90] | 32
34 | CC(C)Nc1ccc2c(c1)/C(=C1\CCOCCN1)C(=O)N2C(C)C [Compound 82] | 26
35 | CC(C)N1CCC2(CC1)CN/C(=C1\C(=O)N(C(C)C)c3ccc(N4CCCC4)cc31)CO2 [Compound 91] | 9
36 | CN(C)c1ccc2c(c1)/C(=C1/NCCN1c1ccccc1)C(=O)N2C [Compound 106] | 142
37 | CC(C)Nc1ccc2c(c1)C(=C1CCOCC1)C(=O)N2C1CCOCC1 [Compound 6] | 207
38 | O=C1/C(=C2/COCCN2)c2cc(NC3CCC3)ccc2N1C1CCOC1 (centres unmarked) [Compound 14] | 20
39 | CC(C)Nc1ccc2c(c1)/C(=C1\COCCN1)C(=O)N2[C@H]1CCN(C(C)C)C1 [Compound 31] | 41
40 | CC(C)Nc1ccc2c(c1)/C(=C1\COCCN1)C(=O)N2C1COCCOC1 [Compound 26] | 59
41 | CC(C)N1C(=O)/C(=C2/COCCN2)c2cc(NC3CCOCC3F)ccc21 (centres unmarked) [Compound 73] | 264
42 | CC(C)N1C(=O)/C(=C2/COCCN2)c2cc(NC3CCN(C)CC3)ccc21 [Compound 38] | 38
43 | CC(C)Nc1ccc2c(c1)/C(=C1\CN(C(C)C)CCN1)C(=O)N2C1CCOCC1 [Compound 46] | 48
44 | CC(C)Nc1ccc2c(c1)/C(=C1\COC3(CCN(C(C)C)CC3)CN1)C(=O)N2C(C)C [Compound 138] | 6

Row | Compound | IC50 [nM]
45 | CN(C)c1ccc2c(c1)/C(=C1\COCCN1)C(=O)N2C [Compound 2] | 1050
46 | O=C1/C(=C2/COCCN2)c2cc(NCC3CCOCC3)ccc2N1C1CCOCC1 [Compound 81] | 233
47 | CN1C(=O)/C(=C2/COCCN2)c2cc(NC3CCC3)ccc21 [Compound 154] | 18
48 | CC(Nc1ccc2c(c1)/C(=C1\COCCN1)C(=O)N2C(C)C)c1nccs1 (centres unmarked) [Compound 144] | 85
49 | CN1C(=O)/C(=C2/CCN(C3CCOC3)CCN2)c2cc(N3CCCC3)ccc21 (centres unmarked) [Compound 155] | 214
50 | O=C1/C(=C2/COCCN2)c2cc(NC3COC3)ccc2N1C1CCOCC1 [Compound 175] | 1190
51 | CC(Nc1ccc2c(c1)/C(=C1\COCCN1)C(=O)N2C1CCOCC1)c1cnccn1 (centres unmarked) [Compound 146] | 211
52 | CC1CCC(C)N1c1ccc2c(c1)/C(=C1\COCCN1)C(=O)N2C1CCOC1 (centres unmarked) [Compound 162] | 61
53 | O=C1/C(=C2/COCCN2)c2cc(NC3CCOCC3)ccc2N1C1CCOCC1 [Compound 18] | 409
54 | CC(=O)N1CCN/C(=C2\C(=O)N(C(C)C)c3ccc(NC(C)C)cc32)C1 [Compound 159] | 80
55 | CC(C)N1C(=O)/C(=C2/CCCCN2)c2cc(N3CCOCC3)ccc21 [Compound 158] | 2070
56 | CC(C)Nc1ccc2c(c1)/C(=C1\COCC(C)N1)C(=O)N2C1CCOCC1 (centres unmarked) [Compound 33] | 37
57 | CC(C)N1C(=O)/C(=C2/COCCN2)c2cc(NCC3(C)COC3)ccc21 [Compound 127] | 176
58 | CCC(C)Nc1ccc2c(c1)/C(=C1\COCCN1)C(=O)N2C1CCOCC1 (centres unmarked) [Compound 59] | 22
59 | CN1CCC/C1=C1/C(=O)N(C2CCOCC2)c2ccc(NC3CCC3)cc21 [Compound 9] | 38
60 | CC(C)N1C(=O)/C(=C2/COCCN2)c2cc(NC3CCCC3)ccc21 [Compound 94] | 27
61 | CC(Nc1ccc2c(c1)/C(=C1\COCCN1)C(=O)N2C(C)C)c1ccccn1 (centres unmarked) [Compound 71] | 131
62 | CC(Nc1ccc2c(c1)/C(=C1\COCCN1)C(=O)N2C1CCOCC1)c1ccccn1 (centres unmarked) [Compound 77] | 48
63 | Nc1ccc2c(c1)/C(=C1\COCCN1)C(=O)N2C1CCOCC1 [Compound 35] | 2720
64 | CC(Nc1ccc2c(c1)/C(=C1\COCCN1)C(=O)N2C(C)C)c1ccnn1C (centres unmarked) [Compound 17] | 159
65 | CN1C(=O)/C(=C2/CCN(C3COC3)CCN2)c2cc(N3CCCC3)ccc21 [Compound 45] | 261
66 | CC(Nc1ccc2c(c1)/C(=C1\COCCN1)C(=O)N2C(C)C)c1cnccn1 (centres unmarked) [Compound 57] | 199

Row | Compound | IC50 [nM]
67 | CNc1ccc2c(c1)/C(=C1\CCCN1)C(=O)N2C1CCOCC1 [Compound 43] | 124
68 | CC(C)N1CCN/C(=C2\C(=O)N(C)c3ccc(N4CCCC4)cc32)C1 [Compound 23] | 173
69 | CC1CCC(C)N1c1ccc2c(c1)/C(=C1\COCCCN1)C(=O)N2C1CCOCC1 (centres unmarked) [Compound 142] | 94
70 | O=C1/C(=C2/CCN(C3COC3)CCN2)c2cc(N3CCCC3)ccc2N1C1CCOCC1 [Compound 121] | 192
71 | CC1CCCC1Nc1ccc2c(c1)/C(=C1\COCCN1)C(=O)N2C(C)C (centres unmarked) [Compound 124] | 15
72 | CC(Nc1ccc2c(c1)/C(=C1\COCCN1)C(=O)N2C1CCOCC1)c1cccnc1 (centres unmarked) [Compound 100] | 397
73 | CCC(CC)Nc1ccc2c(c1)/C(=C1\COCCN1)C(=O)N2C1CCOCC1 [Compound 76] | 24
74 | O=C1/C(=C2/COCCN2)c2cc(NCc3cc[nH]n3)ccc2N1C1CCOCC1 [Compound 21] | 253
75 | CC(C)Nc1ccc2c(c1)/C(=C1\CN(C(C)C)CCN1)C(=O)N2C(C)C [Compound 88] | 10
76 | CC1COC/C(=C2/C(=O)N(C3CCOCC3)c3ccc(N4C(C)CCC4C)cc32)N1 (centres unmarked) [Compound 93] | 101
77 | COCC(C)N1C(=O)/C(=C2/COCCN2)c2cc(NC(C)C)ccc21 (centres unmarked) [Compound 28] | 118
78 | COCC(C)N1C(=O)/C(=C2/COCCN2)c2cc(N3CCC(O)C3)ccc21 (centres unmarked) [Compound 119] | 439
79 | O=C1/C(=C2/COCCN2)c2cc(NC3CCCC3)ccc2N1C1COCCOC1 [Compound 50] | 13
80 | CC(C)N1C(=O)C(=C2CCOCC2)c2cc(N)ccc21 [Compound 157] | 1660
81 | CC(C)N1C(=O)C(=C2CCOCC2)c2cc(N3CCCC3)ccc21 [Compound 7] | 256
82 | CN1CCN/C(=C2\C(=O)N(C)c3ccc(N4CCCC4)cc32)CC1 [Compound 64] | 65
83 | CC(Nc1ccc2c(c1)/C(=C1\COCCN1)C(=O)N2C(C)C)c1cncnc1 (centres unmarked) [Compound 126] | 179
84 | CC(C)N1C(=O)/C(=C2/CCCN2C)c2cc(NC3CCC3)ccc21 [Compound 161] | 20
85 | O=C1/C(=C2/COCCN2)c2cc(NC3CCCC3)ccc2N1C1CCOCC1 [Compound 60] | 10
86 | O=C1/C(=C2/CCOCCN2)c2cc(NC3CCCC3)ccc2N1C1CCOCC1 [Compound 13] | 14
